How the values were obtained:
Test in all cases: KINOMEscan competition binding
[1] = test system: KIT (human), P10721 [L576P]; settings: compound 10.0 µM
MAPK11 (human) = MAPK11 (human) (UniProt Q15759); settings: compound 10.0 µM
CLK1 (human) = CLK1 (human) (UniProt P49759); settings: compound 10.0 µM
[2] = test system: PIK3CA (human), P42336 [M1043I]; settings: compound 10.0 µM
RPS6KA6 KD2 (human) = RPS6KA6 KD2 (human) (UniProt Q9UK32)
ZAP70 (human) = ZAP70 (human) (UniProt P43403); settings: compound 10.0 µM
MAP3K11 (human) = MAP3K11 (human) (UniProt Q16584); settings: compound 10.0 µM
EPHA5 (human) = EPHA5 (human) (UniProt P54756); settings: compound 10.0 µM
Sequence of EPHA5 (human) (P54756 whole entry, looked up): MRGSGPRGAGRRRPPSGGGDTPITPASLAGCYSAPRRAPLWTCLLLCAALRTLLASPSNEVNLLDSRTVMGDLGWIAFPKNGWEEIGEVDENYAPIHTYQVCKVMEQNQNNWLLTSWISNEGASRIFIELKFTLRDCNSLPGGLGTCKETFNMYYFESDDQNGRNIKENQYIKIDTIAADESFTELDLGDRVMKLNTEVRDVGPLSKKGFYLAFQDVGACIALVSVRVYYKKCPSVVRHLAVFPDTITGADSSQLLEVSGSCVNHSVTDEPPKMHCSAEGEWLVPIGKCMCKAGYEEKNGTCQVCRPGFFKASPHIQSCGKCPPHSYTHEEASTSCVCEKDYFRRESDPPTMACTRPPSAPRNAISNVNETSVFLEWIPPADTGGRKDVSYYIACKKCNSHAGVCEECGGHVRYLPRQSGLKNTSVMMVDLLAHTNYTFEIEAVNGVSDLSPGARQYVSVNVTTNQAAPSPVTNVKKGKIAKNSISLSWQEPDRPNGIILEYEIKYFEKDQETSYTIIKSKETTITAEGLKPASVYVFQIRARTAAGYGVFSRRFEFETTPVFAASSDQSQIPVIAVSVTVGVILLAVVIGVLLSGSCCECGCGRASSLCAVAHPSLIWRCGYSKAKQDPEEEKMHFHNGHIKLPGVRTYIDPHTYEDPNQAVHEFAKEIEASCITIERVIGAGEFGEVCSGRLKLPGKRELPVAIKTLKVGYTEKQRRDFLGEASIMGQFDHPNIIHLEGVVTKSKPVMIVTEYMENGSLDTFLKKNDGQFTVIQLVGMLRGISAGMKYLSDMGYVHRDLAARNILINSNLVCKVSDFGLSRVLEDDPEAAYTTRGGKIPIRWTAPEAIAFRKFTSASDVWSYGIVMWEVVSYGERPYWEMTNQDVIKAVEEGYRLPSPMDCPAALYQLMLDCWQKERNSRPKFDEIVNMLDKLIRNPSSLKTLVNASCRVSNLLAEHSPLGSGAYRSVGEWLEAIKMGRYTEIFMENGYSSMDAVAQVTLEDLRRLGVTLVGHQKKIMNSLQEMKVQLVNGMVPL

MARK2 (human) = MARK2 (human) (UniProt Q7KZI7); settings: compound 10.0 µM
CAMK1G (human) = CAMK1G (human) (UniProt Q96NX5); settings: compound 10.0 µM
LATS2 (human) = LATS2 (human) (UniProt Q9NRM7); settings: compound 10.0 µM
[3] = test system: EIF2AK4 KD2 (human), Q9P2K8 [S808G]; settings: compound 10.0 µM
PRKCE (human) = PRKCE (human) (UniProt Q02156); settings: compound 10.0 µM
[4] = test system: EGFR (human), P00533 [T790M/L858R]; settings: compound 10.0 µM
HIPK2 (human) = HIPK2 (human) (UniProt Q9H2X6); settings: compound 10.0 µM
TXK (human) = TXK (human) (UniProt P42681); settings: compound 10.0 µM
Sequence of TXK (human) (P42681 whole entry, looked up): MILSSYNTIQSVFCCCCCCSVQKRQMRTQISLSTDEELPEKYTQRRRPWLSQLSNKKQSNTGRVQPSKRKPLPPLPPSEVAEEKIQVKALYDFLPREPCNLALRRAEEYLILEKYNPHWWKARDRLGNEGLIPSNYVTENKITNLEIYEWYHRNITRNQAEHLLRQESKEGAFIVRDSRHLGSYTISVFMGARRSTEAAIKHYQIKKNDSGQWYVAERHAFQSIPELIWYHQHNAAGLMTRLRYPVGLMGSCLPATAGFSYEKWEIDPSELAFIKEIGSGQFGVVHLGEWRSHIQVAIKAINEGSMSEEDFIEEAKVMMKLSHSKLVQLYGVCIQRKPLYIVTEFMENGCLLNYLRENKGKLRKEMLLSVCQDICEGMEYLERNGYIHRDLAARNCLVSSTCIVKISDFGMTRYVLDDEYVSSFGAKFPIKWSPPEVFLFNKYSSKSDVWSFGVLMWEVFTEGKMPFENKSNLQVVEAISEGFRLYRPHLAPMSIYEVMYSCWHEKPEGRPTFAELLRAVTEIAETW

[5] = biological target: JAK1 JH2 pseudokinase (human) (UniProt P23458); settings: compound 10.0 µM
CAMK4 (human) = CAMK4 (human) (UniProt Q16566); settings: compound 10.0 µM
PRKCD (human) = PRKCD (human) (UniProt Q05655); settings: compound 10.0 µM
CDKL3 (human) = CDKL3 (human) (UniProt Q8IVW4); settings: compound 10.0 µM
CDK9 (human) = CDK9 (human) (UniProt P50750); settings: compound 10.0 µM
CDK4 CCND1 (human) = CDK4 CCND1 (human) (UniProt P11802+P24385); settings: compound 10.0 µM
Sequence of CDK4 CCND1 (human) (P11802 whole entry, looked up): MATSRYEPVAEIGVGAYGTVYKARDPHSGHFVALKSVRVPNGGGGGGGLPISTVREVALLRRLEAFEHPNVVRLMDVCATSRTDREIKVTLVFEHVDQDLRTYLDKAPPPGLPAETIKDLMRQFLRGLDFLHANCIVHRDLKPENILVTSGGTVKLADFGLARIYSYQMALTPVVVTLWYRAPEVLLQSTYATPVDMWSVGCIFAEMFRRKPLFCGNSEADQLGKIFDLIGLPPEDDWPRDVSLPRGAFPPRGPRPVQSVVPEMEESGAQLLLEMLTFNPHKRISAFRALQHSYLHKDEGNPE
Sequence of CDK4 CCND1 (human) (P24385 whole entry, looked up): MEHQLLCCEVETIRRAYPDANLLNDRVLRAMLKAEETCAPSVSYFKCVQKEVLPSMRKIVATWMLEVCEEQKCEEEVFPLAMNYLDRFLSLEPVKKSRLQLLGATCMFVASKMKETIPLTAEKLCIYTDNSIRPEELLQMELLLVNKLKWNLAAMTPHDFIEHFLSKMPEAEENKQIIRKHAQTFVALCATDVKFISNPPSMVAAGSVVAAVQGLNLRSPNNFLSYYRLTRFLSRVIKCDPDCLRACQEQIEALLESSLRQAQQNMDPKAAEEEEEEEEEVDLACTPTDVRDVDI

RPS6KA4 KD1 (human) = RPS6KA4 KD1 (human) (UniProt O75676); settings: compound 10.0 µM
Sequence of RPS6KA4 KD1 (human) (O75676 whole entry, looked up): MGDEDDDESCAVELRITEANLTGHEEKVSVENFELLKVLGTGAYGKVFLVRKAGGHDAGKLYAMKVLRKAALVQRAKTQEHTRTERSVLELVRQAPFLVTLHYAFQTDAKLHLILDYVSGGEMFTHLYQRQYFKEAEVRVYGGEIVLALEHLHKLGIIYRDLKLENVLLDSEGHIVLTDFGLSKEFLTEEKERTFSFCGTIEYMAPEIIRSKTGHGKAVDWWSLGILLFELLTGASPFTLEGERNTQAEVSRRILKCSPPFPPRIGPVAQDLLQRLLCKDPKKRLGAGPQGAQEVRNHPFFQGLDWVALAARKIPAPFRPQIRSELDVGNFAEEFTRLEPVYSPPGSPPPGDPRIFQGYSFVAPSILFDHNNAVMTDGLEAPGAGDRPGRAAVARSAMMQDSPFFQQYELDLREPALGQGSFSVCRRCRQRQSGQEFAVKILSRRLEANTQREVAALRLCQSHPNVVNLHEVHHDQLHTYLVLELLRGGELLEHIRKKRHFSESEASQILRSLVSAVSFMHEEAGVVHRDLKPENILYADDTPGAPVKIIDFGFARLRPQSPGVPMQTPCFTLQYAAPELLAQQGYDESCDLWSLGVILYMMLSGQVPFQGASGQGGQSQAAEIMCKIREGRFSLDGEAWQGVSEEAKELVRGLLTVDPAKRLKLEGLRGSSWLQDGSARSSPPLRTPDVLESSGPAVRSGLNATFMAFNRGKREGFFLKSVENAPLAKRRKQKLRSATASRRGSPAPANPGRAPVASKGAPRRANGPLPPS

[6] = test system: RET (human), P07949 [M918T]; settings: compound 10.0 µM
RIOK2 (human) = RIOK2 (human) (UniProt Q9BVS4); settings: compound 10.0 µM
[7] = test system: EGFR (human), P00533 [L861Q]; settings: compound 10.0 µM
NUAK1 (human) = NUAK1 (human) (UniProt O60285); settings: compound 10.0 µM
Sequence of NUAK1 (human) (O60285 whole entry, looked up): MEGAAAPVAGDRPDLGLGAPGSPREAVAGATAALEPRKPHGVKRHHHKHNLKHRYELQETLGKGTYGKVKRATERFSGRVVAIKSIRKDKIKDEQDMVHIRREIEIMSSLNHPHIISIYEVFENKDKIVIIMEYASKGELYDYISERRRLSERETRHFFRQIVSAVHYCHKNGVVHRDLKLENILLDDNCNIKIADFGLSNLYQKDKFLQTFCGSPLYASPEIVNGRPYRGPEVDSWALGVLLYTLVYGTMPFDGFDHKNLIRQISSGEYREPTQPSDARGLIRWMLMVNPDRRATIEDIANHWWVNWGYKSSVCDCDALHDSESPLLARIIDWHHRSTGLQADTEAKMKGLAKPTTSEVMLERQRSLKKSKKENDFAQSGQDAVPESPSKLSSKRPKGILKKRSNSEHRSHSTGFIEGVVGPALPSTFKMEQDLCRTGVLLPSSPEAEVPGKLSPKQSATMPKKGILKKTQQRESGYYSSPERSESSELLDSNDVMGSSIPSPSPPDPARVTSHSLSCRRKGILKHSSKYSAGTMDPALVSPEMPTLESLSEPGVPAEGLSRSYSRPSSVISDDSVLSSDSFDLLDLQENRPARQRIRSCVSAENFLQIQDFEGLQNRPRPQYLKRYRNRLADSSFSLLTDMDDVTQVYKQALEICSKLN

ITK (human) = ITK (human) (UniProt Q08881); settings: compound 10.0 µM
[8] = test system: EGFR (human), P00533 [G719C]; settings: compound 10.0 µM
ANKK1 (human) = ANKK1 (human) (UniProt Q8NFD2); settings: compound 10.0 µM
STK25 (human) = STK25 (human) (UniProt O00506); settings: compound 10.0 µM
MELK (human) = MELK (human) (UniProt Q14680); settings: compound 10.0 µM
RIPK4 (human) = RIPK4 (human) (UniProt P57078); settings: compound 10.0 µM
BRSK1 (human) = BRSK1 (human) (UniProt Q8TDC3); settings: compound 10.0 µM
MAP2K7 (human) = MAP2K7 (human) (UniProt O14733); settings: compound 10.0 µM
TGFBR2 (human) = TGFBR2 (human) (UniProt P37173); settings: compound 10.0 µM
Sequence of TGFBR2 (human) (P37173 whole entry, looked up): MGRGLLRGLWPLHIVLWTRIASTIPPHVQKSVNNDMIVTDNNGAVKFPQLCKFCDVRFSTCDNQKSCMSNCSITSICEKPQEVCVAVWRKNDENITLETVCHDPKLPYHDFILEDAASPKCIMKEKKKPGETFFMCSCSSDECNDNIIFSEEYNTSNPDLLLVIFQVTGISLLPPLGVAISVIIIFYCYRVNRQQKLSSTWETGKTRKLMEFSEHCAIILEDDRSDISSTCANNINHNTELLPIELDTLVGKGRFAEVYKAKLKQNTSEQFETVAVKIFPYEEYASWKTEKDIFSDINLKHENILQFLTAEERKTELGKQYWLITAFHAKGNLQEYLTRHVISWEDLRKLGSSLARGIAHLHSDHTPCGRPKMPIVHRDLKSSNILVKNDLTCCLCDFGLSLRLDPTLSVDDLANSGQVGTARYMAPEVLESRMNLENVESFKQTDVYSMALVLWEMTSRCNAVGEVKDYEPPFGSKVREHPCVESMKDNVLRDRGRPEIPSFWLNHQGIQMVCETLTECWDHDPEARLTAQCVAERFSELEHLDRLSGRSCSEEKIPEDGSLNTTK

PLK2 (human) = PLK2 (human) (UniProt Q9NYY3); settings: compound 10.0 µM
HIPK1 (human) = HIPK1 (human) (UniProt Q86Z02); settings: compound 10.0 µM
NEK11 (human) = NEK11 (human) (UniProt Q8NG66); settings: compound 10.0 µM
CDC42BPG (human) = CDC42BPG (human) (UniProt Q6DT37); settings: compound 10.0 µM

Sequence of RPS6KA6 KD2 (human) (Q9UK32 whole entry, looked up): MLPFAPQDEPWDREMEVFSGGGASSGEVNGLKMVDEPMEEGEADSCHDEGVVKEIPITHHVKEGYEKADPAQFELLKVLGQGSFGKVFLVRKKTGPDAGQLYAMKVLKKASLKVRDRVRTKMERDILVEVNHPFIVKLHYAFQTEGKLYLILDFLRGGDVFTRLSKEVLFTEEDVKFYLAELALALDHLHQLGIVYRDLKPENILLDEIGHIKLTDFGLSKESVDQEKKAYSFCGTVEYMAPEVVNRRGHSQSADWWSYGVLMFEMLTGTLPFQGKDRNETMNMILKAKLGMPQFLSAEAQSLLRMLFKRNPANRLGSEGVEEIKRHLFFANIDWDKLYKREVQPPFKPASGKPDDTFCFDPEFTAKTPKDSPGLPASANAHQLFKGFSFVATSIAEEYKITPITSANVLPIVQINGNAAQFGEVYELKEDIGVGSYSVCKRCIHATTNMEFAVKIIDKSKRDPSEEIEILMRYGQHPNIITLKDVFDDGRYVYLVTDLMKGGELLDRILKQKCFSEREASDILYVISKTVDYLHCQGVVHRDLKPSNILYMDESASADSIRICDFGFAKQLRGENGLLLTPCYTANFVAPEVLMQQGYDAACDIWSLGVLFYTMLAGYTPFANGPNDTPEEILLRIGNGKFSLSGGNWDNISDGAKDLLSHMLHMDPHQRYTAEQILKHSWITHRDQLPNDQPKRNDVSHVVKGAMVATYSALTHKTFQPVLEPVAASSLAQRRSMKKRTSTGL

COc1cc(C(=O)N2CCC(N3CCN(C)CC3)CC2)ccc1Nc1ncc2c(n1)N(C)c1ccccc1C(=O)N2C
kinase still bound, per cent of control [1]: 100% | kinase still bound, per cent of control (MAPK11 (human)): 60% | kinase still bound, per cent of control (CLK1 (human)): 28% | kinase still bound, per cent of control [2]: 65% | Kd (RPS6KA6 KD2 (human)): 620 nM | kinase still bound, per cent of control (RPS6KA6 KD2 (human); compound 10.0 µM): 2.2% | kinase still bound, per cent of control (ZAP70 (human)): 79% | kinase still bound, per cent of control (MAP3K11 (human)): 100% | kinase still bound, per cent of control (EPHA5 (human)): 95% | kinase still bound, per cent of control (MARK2 (human)): 100% | kinase still bound, per cent of control (CAMK1G (human)): 74% | kinase still bound, per cent of control (LATS2 (human)): 95% | kinase still bound, per cent of control [3]: 95% | kinase still bound, per cent of control (PRKCE (human)): 100% | kinase still bound, per cent of control [4]: 84% | kinase still bound, per cent of control (HIPK2 (human)): 88% | kinase still bound, per cent of control (TXK (human)): 91% | kinase still bound, per cent of control [5]: 92% | kinase still bound, per cent of control (CAMK4 (human)): 79% | kinase still bound, per cent of control (PRKCD (human)): 75% | residual activity (CDKL3 (human)): 83% | residual activity (CDK9 (human)): 100% | residual activity (CDK4 CCND1 (human)): 100% | kinase still bound, per cent of control (RPS6KA4 KD1 (human)): 100% | kinase still bound, per cent of control [6]: 100% | kinase still bound, per cent of control (RIOK2 (human)): 100% | kinase still bound, per cent of control [7]: 100% | kinase still bound, per cent of control (NUAK1 (human)): 47% | kinase still bound, per cent of control (ITK (human)): 82% | kinase still bound, per cent of control [8]: 100% | kinase still bound, per cent of control (ANKK1 (human)): 100% | kinase still bound, per cent of control (STK25 (human)): 68% | kinase still bound, per cent of control (MELK (human)): 100% | kinase still bound, per cent of control (RIPK4 (human)): 74% | kinase still bound, per cent of control (BRSK1 (human)): 81% | kinase still bound, per cent of control (MAP2K7 (human)): 100% | kinase still bound, per cent of control (TGFBR2 (human)): 100% | kinase still bound, per cent of control (PLK2 (human)): 100% | kinase still bound, per cent of control (HIPK1 (human)): 100% | kinase still bound, per cent of control (NEK11 (human)): 100% | kinase still bound, per cent of control (CDC42BPG (human)): 100%

Source: the kinase profiling compilation of Christmann-Franck et al. (2016)
